Assay results as given in ChEMBL document CHEMBL3232929, “Thermodynamic and structural characterization of halogen bonding in protein-ligand interactions: a case study of PDE5 and its inhibitors” (J Med Chem, 2014).

Target: cGMP-specific 3',5'-cyclic phosphodiesterase (Homo sapiens, UniProt O76074)
Test: Binding affinity to recombinant PDE5 catalytic domain (unknown origin) by ITC analysis

| Compound | Kd [nM] |
| --- | --- |
| CCCOc1ccc(S(=O)(=O)N2CCN(C)CC2)cc1-c1nc(CC)cc(=O)[nH]1 | 1450 |
| CCCOc1ccc(S(=O)(=O)N2CCN(C)CC2)cc1-c1nc(CC)c(F)c(=O)[nH]1 | 1730 |
| CCCOc1ccc(S(=O)(=O)N2CCN(C)CC2)cc1-c1nc(CC)c(Cl)c(=O)[nH]1 | 767 |
| CCCOc1ccc(S(=O)(=O)N2CCN(C)CC2)cc1-c1nc(CC)c(Br)c(=O)[nH]1 | 416 |
| CCCOc1ccc(S(=O)(=O)N2CCN(C)CC2)cc1-c1nc(CC)c(I)c(=O)[nH]1 | 152 |
